Results published in PubChem BioAssay (NCI).
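Step 1: Grow cells in 96-well plates. Step 2: Expose to compound for 48 hours at 5 concentrations. Step 3: Interpolate endpoints linearly; if unreached, use highest concentration. At the GI50, growth is halved. The concentration for full growth arrest is given as TGI.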

Assays:
Assay in all cases: inhibition of tumour cell growth, NCI panel, 48 h
SNB-78 CNS = tested on: SNB-78 CNS
KM20L2 colon = tested on: KM20L2 colon
K-562 leukemia = tested on: K-562 leukemia
DMS 114 small cell lung = tested on: DMS 114 small cell lung
HOP-18 NSCLC = tested on: HOP-18 NSCLC
PC-3 prostate = tested on: PC-3 prostate
T-47D breast = tested on: T-47D breast
MDA-MB-435 = tested on: MDA-MB-435
DU-145 prostate = tested on: DU-145 prostate
HS 578T breast = tested on: HS 578T breast
MDA-MB-231 breast = tested on: MDA-MB-231 breast
MDA-N = tested on: MDA-N

SMILES | TGI (SNB-78 CNS) [µM] | TGI (KM20L2 colon) [µM] | TGI (K-562 leukemia) [µM] | TGI (DMS 114 small cell lung) [µM] | TGI (HOP-18 NSCLC) [µM] | GI50 (PC-3 prostate) [µM] | TGI (PC-3 prostate) [µM] | GI50 (K-562 leukemia) [µM] | GI50 (T-47D breast) [µM] | TGI (T-47D breast) [µM] | GI50 (MDA-MB-435) [µM] | TGI (MDA-MB-435) [µM] | GI50 (DU-145 prostate) [µM] | TGI (DU-145 prostate) [µM] | GI50 (HS 578T breast) [µM] | TGI (HS 578T breast) [µM] | GI50 (KM20L2 colon) [µM] | TGI (MDA-MB-231 breast) [µM] | TGI (MDA-N) [µM] | GI50 (MDA-MB-231 breast) [µM]
Cc1cc(N(CCC#N)S(=O)(=O)c2ccccc2)ccc1C=Nc1cccc(C(=O)O)c1 | > 100 | > 100 | > 100 | > 100 | > 100 | – | – | – | – | – | – | – | – | – | – | – | – | – | – | –
Cc1c(C)c2c(c(C)c1OC(=O)CCC(=O)[O-])CCC(C)(CCCCCCCCCCC[P+](c1ccccc1)(c1ccccc1)c1ccccc1)O2 (stereo not drawn) | – | – | 50 | – | – | 0.158 | 0.706 | 0.182 | 0.124 | 0.966 | 0.179 | 0.67 | 0.218 | 0.899 | 0.18 | 1.31 | – | – | – | –
O=C([CH-]C(=O)c1ccccc1)c1ccccc1.[C-]#[O+].[C-]#[O+].[Ir] | – | > 100 | – | – | – | – | – | – | – | – | – | – | – | – | – | – | 39.7 | – | – | –
CON(C)c1nc(N)c(C#N)c(C#N)c1C#N | – | – | – | – | – | – | > 10 | – | – | > 10 | – | > 10 | – | > 10 | – | > 10 | – | > 10 | > 10 | –
C=C1CC[C@@]2(C)[C@@H]([C@@H]1C)[C@H]1CC[C@@H]3[C@@]4(C)CC[C@H](O)C(C)(C)[C@@H]4CC[C@@]3(C)[C@]1(C)C[C@@H]2O | – | – | – | – | – | – | 10.3 | – | – | 8.76 | – | 26 | – | 17.5 | – | 7.29 | – | 4.75 | > 51.5 | –
C1=N[C@]23C(=N[C@H](N=C2NCc2ccco2)[C@]24N=CNC2=N[C@H]3N=C4NCc2ccco2)N1 | – | – | > 100 | – | – | > 100 | > 100 | > 100 | > 100 | > 100 | > 100 | > 100 | > 100 | > 100 | 39.1 | > 100 | – | > 100 | – | > 100
CC1(CO)C(O)CCC2(C)C1CCC1CC3CC12CCC3(O)CO (stereo not drawn) | > 100 | > 100 | > 100 | > 100 | > 100 | – | – | – | – | – | – | – | – | – | – | – | – | – | – | –
COc1cccc(N/C(C)=C2/CCOC2=O)c1 | – | – | – | – | – | – | > 10 | – | – | > 10 | – | > 10 | – | > 10 | – | > 10 | – | > 10 | > 10 | –
O=C(NN1C(=O)C(Cl)C1c1cccc(O)c1)c1ccccc1O (stereo not drawn) | > 100 | – | > 100 | > 100 | > 100 | – | – | – | – | – | – | – | – | – | – | – | – | – | – | –
